The test system of assay [1] is synthesis of 5-HETE by rat glycogen elicited polymorphonuclear leukocytes. Kind of assay: Inhibition of 5-HETE synthesis by rat glycogen elicited polymorphonuclear leukocytes. Type of assay: cell-based. The conditions noted are these: Leukocyte, rat peritoneal PMN, A23187 10 µM, [14C] arachidonic acid, read-out: IC₅₀. The procedure:
The assay of this Example measures the ability of the compounds of the invention to inhibit the synthesis of 5-HETE by rat glycogen elicited polymorphonuclear leukocytes.
The assay is carried out as follows:
(§1) Peritoneal PMN are obtained from female Wistar rats (150-250 g) that received an i.p. injection of 6% glycogen (10 ml). After 24 hours, rats are killed by Co₂ asphyxiation and peritoneal cells are harvested by peritoneal lavage using Ca⁺⁺ and Mg⁺⁺ free Hanks' balanced salt solution (HBSS). The peritoneal exudate is centrifuged at 400 g for 10 minutes. After centrifugation, the lavaged fluid is removed and the cell pellet is resuspended in HBSS containing Ca⁺⁺ and Mg⁺⁺ and 10 mM L-cysteine at a concentration of 2 x 10⁷ cells/ml. To 1 ml portions of cell suspension, test drugs or vehicle are added and incubated at 37°C for 10 minutes. Following this preincubation, the calcium ionophore (10 µM), A23187, is added together with 0.5 µCi [₁₄C] arachidonic acid and further incubated for 10 minutes. The reaction is stopped by the addition of ice cold water (3 ml) and acidifying to pH 3.5. Lipoxygenase products are then extracted twice into diethyl ether. […] After chromatography, the areas associated with 5-HETE standard are identified by autoradiography, cut out and quantitated by liquid scintillation.

The subject of assay [2] is LTD₄ induced bronchoconstriction. Kind of assay: Inhibition of leukotriene-induced bronchospasm in guinea pigs in vivo. The settings on record: 10 minutes before induction of bronchospasm, inhibition of % max AUC. The procedure: The assay of this Example measures the in vivo ability of the compounds of the invention to inhibit the bronchospasm induced in guinea pigs by the exogenously administered leukotrienes C₄ and/or D₄.
(§2) This assay is carried out as follows:
Male Hartley strain guinea pigs (350-600g) are anesthetized with pentobarbital sodium (50 mg/kg, i.p.). The jugular vein is cannulated for injection of drugs and the carotid artery for monitoring blood pressure. The trachea is cannulated for artificial ventilation by a miniature Starling pump and for indirect measurement of respiratory volume changes. The animals are then pretreated with succinylcholine (2 mg/kg i.v.) and indomethacin (10 mg/kg i.v. in trizma 8.3 buffer, 9 minutes prior to leukotriene challenge). Submaximal bronchoconstrictor responses are established in control animals by varying the dose-levels of leukotriene. Intravenous dose-levels for LTC₄ range from 0.4 to 0.6 µg/kg and for LTD₄ the range is from 0.3 to 0.5 µg/kg.
Test drugs (dissolved in a solvent such as propylene glycol, polyethylene glycol 400 or saline) are administered either intraduodenally, by aerosol or intragastrically at 2 or 10 minutes before induction of bronchospasm by administration of either LTC₄ or LTD₄ at the predetermined dose-level. Aerosol of soluble drugs or leukotrienes are produced in-line for 10 seconds only by actuation of an ultrasonic nebulizer (Monaghan). Aerosolized drug dosage is expressed in terms of solution concentration and by a fixed aerosol exposure time (approximately 10 seconds). Control animal receive solvent (2 ml/kg i.d. or appropriate aerosol) in place of drug.
Respiratory volume changes are determined by a calibrated piston whose travel is recorded, via a linear transducer, on a Beckman Dynograph recorder. Maximal bronchoconstrictor volume is determined by clamping off the trachea at the end of the experiment. Overflow volumes at 1, 3 and 5 minutes are obtained from the recorded charts.
Student's t-test for unpaired data is used to determine statistical significance (p < 0.05).

The test system of assay [3] is synthesis of the arachidonic acid cyclooxygenase oxidation product PGE₂. Description: Inhibition of PGE₂ synthesis (cyclooxygenase product) by rat polymorphonuclear leukocytes. Type of assay: cell-based. The settings on record: Leukocyte, rat peritoneal PMN, procedure of Example 4, read-out: IC₅₀. The procedure: as §1, with “scintillation. […]” for “scintillation.”
In this assay, the procedure of Example 4 is carried out as described. […] After chromatography, the areas associated with the PGE₂ standard are identified by autoradiography, cut out and quantitated by liquid scintillation techniques.
The results are calculated as in Example 4.

The test system of assay [4] is rat carrageenan paw edema. Kind of assay: Rat carrageenan paw edema assay. Format: in vivo. The conditions noted are these: for % Inhibition at 50 mg/kg (peroral): 1 hour prior to carrageenan, edema at 3 hours; for ED50: oral, standard drugs, rat paw edema, read-out: Oral ED50 (95% C.L.). The protocol:
The compounds of the invention are further tested in the rat carrageenan paw edema assay to determine their ability to inhibit the acute inflammatory response.
as §2
140-180 gm male Sprague-Dawley rats, in groups of 6 animals are injected subcutaneously in the right paw with 0.1 ml of 1% carrageenan at zero time. Mercury plethysmographic readings (ml) of the paw are made at zero time and 3 hours later. Test compounds are suspended or dissolved in 0.5% methylcellulose and given perorally 1 hour prior to carrageenan administration.
The increase in paw volume (edema in ml.) produced by the carrageenan is measured. […] Unpaired Student's t-test is used to determine statistical significance.
In general terms: The carrageenan paw model is a standard test of acute inflammation.

[5] abbreviates: 25 mg/kg intraduodenally administered.
Where [6] appears, read: 25 mg/kg intragastrically administered.

Usually % Inhibition stands for the relative decrease from the control value, in per cent. A high value points to a response far below the control. In the case of `Cc1ccc(S(=O)(=O)NC(=O)c2cccc(OCc3ccc4ccccc4n3)c2)cc1` [Example 3, N-[(4-Methylphenyl)sulfonyl]-3-(2-quinolinylmethoxy)benzamide], the IC50 in assay [1] was 6 µM; in assay [3] it was 13 µM. The “% Inhibition” value was 97% in assay [2] (setting [5]) and 91% in assay [2] (setting [6]). Moreover, the “% Inhibition at 50 mg/kg (peroral)” value in assay [4] turned out to be 50%.
In general, ED50 refers to the dose that gives a 50% effect, or the effect in half of the subjects. As to `CCCCC1C(=O)N(c2ccccc2)N(c2ccccc2)C1=O` [Phenylbutazone], the ED50 in assay [4] worked out at 26.2 mg/kg.
Same read-out and setting: the figure for `CC(=O)Oc1ccccc1C(=O)O` [Aspirin] is 145 mg/kg.
On to `Cc1ccc(S(=O)(=O)NC(=O)CCc2cccc(OCc3ccc4ccccc4n3)c2)cc1` [Example 1, N-[(4-Methylphenyl)sulfonyl]-3-(2-quinolylmethoxy)benzenepropanamide], for which the results for the “% Inhibition” value in assay [2] (setting [5]) and in assay [2] (setting [6]) were 97% and 66%, respectively. Besides, the “% Inhibition at 50 mg/kg (peroral)” value in assay [4] came to 40%.
As for `COc1ccc2c(c1)c(CC(=O)O)c(C)n2C(=O)c1ccc(Cl)cc1` [Indomethacin], the ED50 in assay [4] worked out at 3.7 mg/kg.

The record behind these values is EP0309541B1, “SULFONYLCARBOXAMIDES” (AMERICAN HOME PRODUCTS CORPORATION, priority 1987, dated 1988).
